Measurements as given in patent publication US20230318003A1, “REDOX FLOW BATTERY AND AQUEOUS-BASED SOLUTION” (RIVUS AB, priority 2020, published 2023).

How the values were obtained:
[1] = Cyclic voltammetry of the compounds of Examples 3, 4a and 4b; assay type: physicochemical; settings: for Redox potential E^0′ vs. Ag/AgCl: single redox process; for Decomposition during cyclic voltammetry: both acidic and neutral electrolytes; for Redox potential vs. Ag/AgCl, first redox process / Redox potential vs. Ag/AgCl, second redox process: neutral electrolyte
Protocol: All CV measurements were carried out in a custom built 10 ml three-electrode electrochemical cell. The lower part of the cell holds the electrolyte of interest. In the upper part are ports to hold the working electrode, reference electrode and auxiliary electrode as well as inlet and outlet for N2 gas. […] Cyclic voltammograms were recorded at scan rates of 10 mVs^−1, 20 mVs^−1, 50 mVs^−1, 100 mVs^−1 and 250 mVs^−1 at room temperature. Prior to measurements, the electrolyte was de-aerated by continuously purging with N2 gas for 10-15 minutes and maintaining a N2 flow-blanket throughout the experiment to minimize any environmental contamination. Also, 80% of the ohmic drop was compensated for during the experiment using a positive feedback-loop.

[2] = Solubility testing, saturated solutions in milli-Q water at ambient temperature; settings: thermodynamic from solid
Protocol: The solutions were centrifuged at 12,500 rpm for 30 minutes. 100 μl of the supernatant were pipetted in triplicates from each of the solution into separate empty vials of known weights. The content of these vails were left to dry in a vacuum oven overnight. The final weights of the vials were determined and the amount of each of the compounds calculated from the weight difference. Solubility in mmol/L for each compound was finally determined.

[3] = Water solubility of NDI; assay type: physicochemical
[4] = Titration of tertiary NDI in water with 1 M sodium hydroxide; assay type: physicochemical; settings: 50 ml 15.6 mM tertiary NDI in water
From the text: The quaternization is only necessary if the molecule is to be examined at higher pH values, since the tertiary amine sidechains are protonated for pH values less than about 8 (pKa≈8.1) as shown by the titration curve in FIG. 1. In FIG. 1 it can be seen that the molecule deprotonates above pH 8 and precipitates out of solution. For actual flow battery applications, i.e. redox flow battery according to the present invention, the last reaction step is thus possible to omit.

[5] = Diffusion NMR of NDI; assay type: physicochemical
From the text: Addition of three protons to each NDI molecule at pH values as high as 3 is unlikely, since the third proton would be at a weakly basic carbonyl. This is further supported by the lack of buffering at lower pHs in the titration curve in FIG. 1.

[6] = Cyclic voltammetry of NDI at different pH values; assay type: physicochemical; settings: pH below 3
From the text: The electrochemistry of NDI was examined by CV at a range of different pH values, to gain understanding of the electron transfer reaction mechanism. FIG. 2a and FIG. 2b show cyclic voltammograms (CVs) for NDI at pH 7 and 0, respectively. […] The broadness of the first reduction at pH 7, is assumed to be due to the possibility for the first electron to add at different positions of NDI.
A plot of the reduction potentials for NDI at different pHs is seen in FIG. 3. […] The second reduction, the triangles in the figure, has a slope of 91 mV/pH at pH below 3, indicating a one electron-1.5 proton relationship, according to the Nernst equation.

[7] = Bulk electrolysis cycling of NDI; assay type: physicochemical; settings: 25 mM in pH 6.4 phosphate buffer, twelve cycles at 15 mA, roughly a week
Protocol: A solution of 25 mM NDI in pH 6.4 sodium phosphate buffer was cycled in a bulk electrolysis cell, where all of the material is reduced, as opposed to CV and RDE, where only a small fraction of the material is probed. A galvanostatic BE setting was used, where a constant current of 40 mA was applied. The electrolysis was intermittently paused, allowing for CVs to be collected to be able to quantify the amount of NDI that has been reduced. The peak heights from the CVs were correlated to the passed current, and it was seen that the complete capacity of NDI could be accessed using bulk electrolysis. […] For NDI, the reduction of the molecule lowers the monomer concentration in the solution, and the dimerization equilibrium is shifted in the direction of dimer separation.
After the initial sweep, continuous cycling at a current of 15 mA was performed for twelve cycles. A CV was collected after the cycling had finished, roughly a week after starting. […] Apart from that, the NDI molecule is synthesized via a one-step reaction, at room temperature in water with an almost 100% yield. It is water soluble up to 0.7 M, and has a lower reduction potential than any of the other examined molecules, resulting in a high battery voltage in the application.

[8] = 0.5M sodium phosphate buffer of pH 7, scan rate 10 mVs^−1
[9] = 0.5M sodium phosphate buffer of pH 7, scan rate 20 mVs^−1
[10] = 0.5M sodium phosphate buffer of pH 7, scan rate 50 mVs^−1
[11] = 0.5M sodium phosphate buffer of pH 7, scan rate 100 mVs^−1
[12] = 0.5M sodium phosphate buffer of pH 7, scan rate 250 mVs^−1
[13] = 1M sulfuric acid, scan rate 10 mVs^−1
[14] = 1M sulfuric acid, scan rate 20 mVs^−1
[15] = 1M sulfuric acid, scan rate 50 mVs^−1
[16] = 1M sulfuric acid, scan rate 100 mVs^−1
[17] = 1M sulfuric acid, scan rate 250 mVs^−1
[18] = acidic electrolyte (1 M sulfuric acid)

4,9-dibromo-2,7-bis(3-(dimethylamino)propyl)benzo[Imn][3,8]phenanthroline-1,3,6,8(2H,7H)-tetraone [Compound 1]
E^0′ vs. Ag/AgCl [1, 8]: −0.43 V
peak current ratio ipa/ipc [1, 8]: 0.82 ± 0.04
ΔEp [1, 8]: 49.21 ± 8.49 mV
E^0′ vs. Ag/AgCl [1, 9]: −0.43 V
peak current ratio ipa/ipc [1, 9]: 0.80 ± 0.05
ΔEp [1, 9]: 51.87 ± 9.16 mV
E^0′ vs. Ag/AgCl [1, 10]: −0.43 V
peak current ratio ipa/ipc [1, 10]: 0.74 ± 0.06
ΔEp [1, 10]: 61.48 ±12.09 mV
E^0′ vs. Ag/AgCl [1, 11]: −0.43 V
peak current ratio ipa/ipc [1, 11]: 0.69 ± 0.07
ΔEp [1, 11]: 68.59 ± 14.05 mV
E^0′ vs. Ag/AgCl [1, 12]: −0.43 V
peak current ratio ipa/ipc [1, 12]: 0.63 ± 0.07
ΔEp [1, 12]: 86.49 ± 20.99 mV
E^0′ vs. Ag/AgCl [1, 13]: −0.13 V
peak current ratio ipa/ipc [1, 13]: 0.91 ± 0.05
ΔEp [1, 13]: 63.67 ± 10.03 mV
E^0′ vs. Ag/AgCl [1, 14]: −0.13 V
peak current ratio ipa/ipc [1, 14]: 0.92 ± 0.01
ΔEp [1, 14]: 63.31 ± 10.97 mV
E^0′ vs. Ag/AgCl [1, 15]: −0.13 V
peak current ratio ipa/ipc [1, 15]: 0.89 ± 0.02
ΔEp [1, 15]: 64.97 ± 10.46 mV
E^0′ vs. Ag/AgCl [1, 16]: −0.13 V
peak current ratio ipa/ipc [1, 16]: 0.87 ± 0.00
ΔEp [1, 16]: 66.31 ± 9.29 mV
E^0′ vs. Ag/AgCl [1, 17]: −0.13 V
peak current ratio ipa/ipc [1, 17]: 0.82 ± 0.01
ΔEp [1, 17]: 71.25 ± 11.85 mV
Redox potential E^0′ vs. Ag/AgCl [1, 18]: −0.13 V
Redox potential E^0′ vs. Ag/AgCl ([1]; neutral electrolyte (0.5 M sodium phosphate buffer pH 7)): −0.43 V

C[N+](C)(C)CCCN1C(=O)c2ccc3c4c(ccc(c24)C1=O)C(=O)N(CCC[N+](C)(C)C)C3=O [Compound 2, Benzo[Imn][3,8]phenanthroline-2,7-dipropanaminium, 1,3,6,8-tetrahydro-N,N,N,N′,N′,N′-hexamethyl-1,3,6,8-tetraoxo-, dichloride]
Redox potential E^0′ vs. Ag/AgCl [1, 18]: ~−0.32 V
Decomposition during cyclic voltammetry [1]: no evidence of decomposition
Redox potential vs. Ag/AgCl, first redox process ([1]; first redox process): ~−0.30 V
Redox potential vs. Ag/AgCl, second redox process ([1]; second redox process): ~−0.63 V
solubility ([2]; Average, average of tests 1-3): 678 mM
solubility ([2]; Test 1, milli-Q water): 653 mM
solubility ([2]; Test 2, milli-Q water): 689 mM
solubility ([2]; Test 3, milli-Q water): 691 mM

C[N+](C)(C)CCCN1C(=O)c2cc(Br)c3c4c(cc(Br)c(c24)C1=O)C(=O)N(CCC[N+](C)(C)C)C3=O [Compound 3, 3,3′-(4,9-dibromo-1,3,6,8-tetraoxo-1,3,6,8-tetrahydrobenzo[Imn][3,8]phenanthroline-2,7-diyl)bis(N,N,N-trimethylpropan-1-aminium) chloride]
Potential vs. Ag/AgCl, first pair of peaks ([1]; acidic electrolyte, first redox process): ~−0.13 V
Potential vs. Ag/AgCl, second pair of peaks ([1]; acidic electrolyte, second redox process): ~−0.38 V
Decomposition during cyclic voltammetry [1]: no evidence of decomposition
Redox potential vs. Ag/AgCl, first redox process ([1]; first redox process): −0.05 V
Redox potential vs. Ag/AgCl, second redox process ([1]; second redox process): −0.65 V
solubility ([2]; Average, average of tests 1-3): 149 mM
solubility ([2]; Test 1, milli-Q water): 142 mM
solubility ([2]; Test 2, milli-Q water): 151 mM
solubility ([2]; Test 3, milli-Q water): 154 mM

CN(C)CCCN1C(=O)c2ccc3c4c(ccc(c24)C1=O)C(=O)N(CCCN(C)C)C3=O [NDI, 2,7-bis(3-(dimethylamino)propyl)benzo[Imn][3,8]phenanthroline-1,3,6,8(2H,7H)-tetraone]
Water solubility [3]: up to 0.7 M
pKa of tertiary amine sidechains [4]: ≈ 8.1
Diffusion coefficient ([5]; acid solution): 2.57 ×10^−6 cm^2 s^−1
Diffusion coefficient ([5]; neutral solution): 2.34 ×10^−6 cm^2 s^−1
Slope of second reduction potential versus pH [6]: 91 mV/pH
Material degradation after cycling (CV before vs after) [7]: no or little material degradation
